Measured values published in PubChem BioAssay (NCI).
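Cultured in 96-well plates, cells were exposed to test compound for 48 hours across five concentrations. GI50: concentration for 50% inhibition of growth. At the TGI there is no net growth.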

How the values were obtained:
Experiment in all cases: NCI tumour cell line growth inhibition, 48 h
NCI-H460 lung = tested on: NCI-H460 lung
RXF 393 renal = tested on: RXF 393 renal
SR leukemia = tested on: SR leukemia
TK-10 renal = tested on: TK-10 renal
U251 CNS = tested on: U251 CNS
UACC-62 melanoma = tested on: UACC-62 melanoma
MCF7 breast = tested on: MCF7 breast
OVCAR-3 ovarian = tested on: OVCAR-3 ovarian
HS 578T breast = tested on: HS 578T breast

| SMILES | TGI (NCI-H460 lung) [µM] | TGI (RXF 393 renal) [µM] | TGI (SR leukemia) [µM] | TGI (TK-10 renal) [µM] | TGI (U251 CNS) [µM] | TGI (UACC-62 melanoma) [µM] | TGI (MCF7 breast) [µM] | TGI (OVCAR-3 ovarian) [µM] | GI50 (HS 578T breast) [µM] | TGI (HS 578T breast) [µM] | GI50 (RXF 393 renal) [µM] | GI50 (TK-10 renal) [µM] | GI50 (U251 CNS) [µM] | GI50 (UACC-62 melanoma) [µM] | GI50 (MCF7 breast) [µM] | GI50 (NCI-H460 lung) [µM] | GI50 (OVCAR-3 ovarian) [µM] |
| --- | --- | --- | --- | --- | --- | --- | --- | --- | --- | --- | --- | --- | --- | --- | --- | --- | --- |
| O=C1C=CC(=O)c2c(O)c(NCCOCCO)c(Cl)c(O)c21 | 13.6 | 27.1 | 37.9 | 26.6 | 30.7 | 11.7 |  |  |  |  |  |  |  |  |  |  |  |
| COc1cccc(N[C@@H]2c3cc4c(cc3C(c3cc(OC)c(O)c(OC)c3)[C@H]3C(=O)OCC32)OCO4)c1 (some centres not stated) | 1.6 | 7.12 |  |  | 13 | 2.83 | 14.4 | 68.6 |  |  |  |  |  |  |  |  |  |
| COc1cccc(C=O)c1[O-].[O]=[U](=[O])([OH2+])[OH2+] | 58.4 | 94.1 | 87.5 | 97.4 | 59.1 | 57.6 |  | 49.4 |  |  |  |  |  |  |  |  |  |
| CC1(C)CC2(CC(C)(C)N1O)NC(=O)OC2=O | > 31.6 | > 100 |  |  | > 100 | > 100 | > 100 | > 100 |  |  |  |  |  |  |  |  |  |
| O=c1oc(C(C(F)(F)F)C(F)(F)F)nc2ccccc12 | > 100 | > 100 | > 100 | > 100 | > 100 |  | > 100 | > 100 |  |  |  |  |  |  |  |  |  |
| CCN=C1C=CC(=C(c2ccc(N(CC)CC)cc2)c2ccc(N(CC)CC)cc2)c2ccccc21 |  | 0.384 |  | 1.13 | 1.11 | 1.11 |  |  | 0.0408 | 0.533 | 0.0585 | 0.0422 | 0.0348 | 0.0983 |  |  |  |
| c1ccc(CN2CCC(Nc3ccccc3)(c3nnnn3Cc3ccccc3)CC2)cc1 | 53.9 | 73.8 | 93.2 | > 100 | > 100 | > 100 | 88.2 |  |  | > 100 |  |  |  |  |  |  |  |
| COc1cc(C2C3=C(COC3=O)Oc3cc4c(cc32)OCO4)cc(OC)c1O (configuration not stated) | 4.05 |  | > 100 | 63.8 | 14 | 2.69 | > 48.2 | 19.8 |  |  |  |  |  |  |  |  |  |
| Cc1nnc2n1N=C(c1ccc(Cl)cc1Cl)/C(=C/c1ccc(-c3ccc([N+](=O)[O-])cc3Cl)o1)S2 | > 100 | 25.1 |  | 34.8 | 30.2 | 39.9 | 14.3 | 34 | 20.2 | 50.7 | 11.5 | 18.4 | 14.9 | 18.4 | 2.06 | 26 | 14.4 |
| C=C(C)CC1(O[Si](C)(C)C)C(=O)C(OCC)=C1OCC (configuration not stated) | > 100 |  |  | > 100 | > 100 | > 100 | > 100 | > 100 |  | > 100 |  |  |  |  |  |  |  |
| Cc1cc(OC(=O)NCn2cc(-c3ccccc3)nn2)ccc1Cl | > 100 |  | > 100 | > 100 | > 100 |  | > 100 |  |  |  |  |  |  |  |  |  |  |
| COc1ccc(OC)c(SC(CC(=O)c2ccccc2)c2ccccc2)c1 (configuration not stated) | > 100 | 31.1 | > 100 | 32.7 | 31 | 30.7 | 13.7 | 16.4 |  | 68.3 |  |  |  |  |  |  |  |
| NCc1cccc(O)c1O | > 100 | > 100 | > 100 | > 100 | > 100 | > 100 |  | > 100 |  |  |  |  |  |  |  |  |  |
| COc1cnc2c(c1)C(=O)c1c-2n(CCCNCCO)c(=O)c2ccncc12 | 3.99 | 3.48 |  | 19.3 | 19.4 | 2.12 | 11.3 | 9.73 | 2.32 | 10.7 | 1.2 | 2.05 | 0.708 | 0.552 | 0.303 | 0.513 | 2.26 |
| CC1(C)CC(=O)C2(CC(CSc3ccccc3)C(CS(=O)(=O)c3ccccc3)C2)C(=O)C1 (configuration not stated) |  | > 100 |  | > 100 | > 100 | > 100 | > 100 | > 100 |  | > 100 |  |  |  |  |  |  |  |
| CN(C)CCn1c(CO)nc2c1c(=O)n(C)c(=O)n2C | > 100 | > 100 | > 100 | > 100 | > 100 | > 100 | > 100 | > 100 |  | > 100 |  |  |  |  |  |  |  |
| COc1cc2cc(C(=O)N3CC(COS(C)(=O)=O)c4ccc(O)cc43)[nH]c2c(OC)c1OC (configuration not stated) |  | < 0.0001 |  | 14 | 0.137 |  | 0.0402 | 0.000616 |  | 0.000872 |  |  |  |  |  |  |  |
| O=C(Nc1ccccc1C(=O)NCc1ccccc1)/C(=C/c1ccccc1)NC(=O)c1ccccc1 |  | > 100 | > 100 | > 100 | > 100 | > 100 | > 100 | > 100 |  | > 100 |  |  |  |  |  |  |  |
| Cc1ccccc1-c1nc2c(C(=O)NCCN(C)C)cccc2[nH]1 | > 100 | > 100 |  |  | > 100 | > 100 | > 100 | > 100 |  |  |  |  |  |  |  |  |  |
| O=C(CCN1CCN2c3ccccc3CCC2C1)c1ccc(F)cc1 (configuration not stated) | > 100 | 43.3 | > 100 | 66 | > 100 | > 100 | 51.3 | 71.4 |  | > 100 |  |  |  |  |  |  |  |
